Square brackets hold non-standard residues; d marks the D form. Ends that are not written are not given here. * marks the point of attachment. Cyclohexyl = cyclohexyl group capping the N-terminus, C1CCC(*)CC1; Fmoc = O=C(OCC1c2ccccc2-c2ccccc21)*
Columns and labels:
[1] = system: Spodoptera littoralis larvae; assay: Melanotropic inhibitory activity: injection with a stimulator (PBAN, PT, LPK, DH); format: in vivo; details: for Melanotropic inhibitory activity, stimulator DH: injected with DH (diapause hormone); for Melanotropic inhibitory activity, stimulator DH / Melanotropic inhibitory activity, stimulator LPK / Melanotropic inhibitory activity, stimulator PBAN / Melanotropic inhibitory activity, stimulator PT: 100 pm; for Melanotropic inhibitory activity, stimulator LPK: injected with LPK (leucopyrokinin); for Melanotropic inhibitory activity, stimulator PBAN: injected with PBAN, inhibition = 100 minus % melanization with vs without peptide; for Melanotropic inhibitory activity, stimulator PT: injected with PT (pheromonotropin); for inhibition of melanin synthesis stimulated by LPK: stimulator LPK; for inhibition of melanin synthesis stimulated by PBAN: stimulator PBAN; for inhibition of melanin synthesis stimulated by PT: stimulator PT
Text: FIG. 12. is a graph showing the melanotropic inhibitory activity of the peptides of the invention against different stimulators of the PK/PBAN family: PBAN, PT (pheromonotropin), LPK (leucopyrokinin), DH (diapause hormone). • Degree of cuticular melanization is expressed as a percentage of the melanization obtained by injection the elicitor itself (PBAN, PT, LPK or DH) in the absence of the tested peptide (not shown). Statistical analysis compared the degree of melanization in the presence and absence of the tested peptide with any given elicitor. An asterisk indicates a significant difference between the degree of melanization obtained in the presence of the peptide. This assay is used to test the agonistic properties of the tested peptides (in adult females), and to determine the peptides melanotropic agonistic or antagonistic properties (in larvae). It was also used to determine the activity of peptides that were stored outdoors for different amounts of time. The peptides are injected into either adult female insects (e.g. moths) at photophase (when pheromone is not synthesized naturally, but the insect has the ability to produce pheromone upon stimulation with a agonist) or into 5th instar larvae. Agonistic properties were tested by injection of the peptides alone; antagonistic properties were determined by injection of the peptide together with a stimulator. The ability of the peptides to inhibit cuticular melanin synthesis was tested in Spodoptera littoralis larvae. Inhibitory activity was tested by injecting the peptides to Spodoptera littoralis larvae together with a given stimulator: PBAN, PT, LPK and DH. Inhibition is expressed as 100 minus the ratio in percentage (%) between the extents of cuticular melanization obtain in the presence and absence of the tested peptide (Table 2).

[2] = system: Heliothis peltigera female moths; assay: Topical application: inhibition of sex pheromone biosynthesis (cuticular bioavailability); format: in vivo; details: for lowering of pheromone content compared to the solvent / inhibition of pheromone biosynthesis: 10 pmol; for comparison of activity in IIS vs. tap water: topical application
Description: FIG. 2. is a graph showing the effect of topically applied peptides on the inhibition of sex pheromone biosynthesis in Heliothis peltigera female moths. • The tested peptides are those listed in Table 1 (1-10, respectively). • Peptides were tested at a concentration of 10 pmol and were applied in IIS (0.5% ethanol, 0.05% Tween-80 in DDW), and DDW for 1 h. • Sex pheromone content is expressed as a percentage of the endogenous pheromone content obtained using control untreated moths (defined as 100%). Statistical analysis compared pheromone content in the presence of each peptide with that obtained with the corresponding solvents themselves (indicated by an asterisk).
FIG. 3A and FIG. 3B are graphs showing the dose response of Ac-A-dPhe-4 (3A) or Ac-A-dPhe-6 (3B) on inhibition of sex pheromone biosynthesis in Heliothis peltigera female moths. Peptides were applied in DDW for 1 h. • Sex pheromone content is expressed as a percentage of the endogenous pheromone content obtained using control untreated moths (defined as 100%). Statistical analysis compared pheromone content in the presence of each peptide at the indicated concentrations with that obtained with the solvent itself (indicated by an asterisk). A similar statistical analysis was also made against the pheromone content of untreated moths (indicated by #). […] Differences in the potency of the peptides at the indicated concentrations are depicted by letters.
FIG. 4. is a graph showing the time response of 1 nmol Ac-A-dPhe-4 and Ac-A-dPhe-6 (applied in DDW) on inhibition of sex pheromone biosynthesis in Heliothis peltigera female moths. • Sex pheromone content is expressed as a percentage of the endogenous pheromone content obtained using control untreated moths (defined as 100%). Statistical analysis compared pheromone content in the presence of each peptide at the indicated times with that obtained with the solvent itself at the same time point (indicated by an asterisk). […] Differences in the potency of the peptides at the indicated time points are depicted by letters. (Ac-A-dPhe-4: small letters; Ac-A-dPhe-6: capital letters).
FIG. 5A to FIG. 5C are graphs showing the effect of topically applied peptides on inhibition of sex pheromone biosynthesis in Heliothis peltigera female moths. • The tested peptides are those listed in Table 1 (1-6, respectively). Peptides were tested at a concentration of 1000 pmol (5A), 300 pmol (5B) or 100 pmol (5C) and were applied in DDW, DMSO and IIS for 7h. • Sex pheromone content is expressed as a percentage of the endogenous pheromone content obtained using control untreated moths (defined as 100%). Statistical analysis compared pheromone content in the presence of each peptide in a given solvent (DDW, DMSO or ITS) with that obtained with the solvents themselves (indicated by an asterisk).
a) Topical Application (TA)
This assay is used to determine cuticular penetrability.
The tested peptides are applied onto the insect (e.g. moths) at scotophase (when pheromone is naturally synthesized) in a given solvent for the indicated times.
Antagonistic activity was tested at a concentration of 10 pmol and the peptides were topically applied in two solvents: DDW and IIS (FIG. 2). […] Ac-A-dPhe-6 was the second best in IIS inhibiting pheromone biosynthesis by 74%.
Only minor differences in activity is observed as a function of a dose (with the exception of Ac-A-dPhe-4 at 1000 pmol, which inhibited pheromone production to a lesser extent of about 50%).
All experiments were carried out at the scotophase and the peptides were applied one hour before pheromone glands were excised (+5) and tested for pheromone content (at the 6th hour of the scotophase when the pheromone content is at its highest level). The high inhibition obtained under the tested conditions, indicates the extremely fast and high penetrability and bioactivity of the peptides of the invention. […]

| Substance | Melanotropic inhibitory activity, stimulator DH [1] | Melanotropic inhibitory activity, stimulator LPK [1] | Melanotropic inhibitory activity, stimulator PBAN [1] | Melanotropic inhibitory activity, stimulator PT [1] | inhibition of melanin synthesis stimulated by LPK [1] | inhibition of melanin synthesis stimulated by PBAN [1] | inhibition of melanin synthesis stimulated by PT [1] | lowering of pheromone content compared to the solvent ([2]; topical, in DDW, 1 h) | comparison of activity in IIS vs. tap water [2] | lowering of pheromone content compared to the solvent ([2]; topical, in IIS, 1 h) | inhibition of pheromone biosynthesis ([2]; topical, in IIS, 1 h) | potency as a function of application time ([2]; topical, 1 nmol in DDW, 1, 3 and 7 h) | inhibition of pheromone production ([2]; topical in DDW, 1 h, 1000 pmol) | inhibition of pheromone biosynthesis ([2]; topical, in DDW, 1 h) | activity as a function of the dose ([2]; topical, 7 h, in IIS and DMSO, 100, 300, 1000 pmol) | activity as a function of carrier ([2]; topical, 300 pmol, 7 h, DDW, IIS, DMSO) |
| --- | --- | --- | --- | --- | --- | --- | --- | --- | --- | --- | --- | --- | --- | --- | --- | --- |
| Cyclohexyl-Ala-Ser-Pro-[dPhe]-Leu-amide (Cyclohexyl-ASP[dF]L-NH2; SMILES CC(C)C[C@H](NC(=O)[C@@H](Cc1ccccc1)NC(=O)[C@@H]1CCCN1C(=O)[C@H](CO)NC(=O)[C@H](C)NC1CCCCC1)C(N)=O) [Cyc-A-dPhe-6] | 15% | 100% | 67% | 26% | inhibited LPK | inhibited PBAN | – | – | – | – | – | – | – | – | – | – |
| Acetyl-Arg-Tyr-Phe-[dPhe]-Pro-Arg-Leu-amide (Ac-RYF[dF]PRL-NH2; SMILES CC(=O)N[C@@H](CCCNC(=N)N)C(=O)N[C@@H](Cc1ccc(O)cc1)C(=O)N[C@@H](Cc1ccccc1)C(=O)N[C@H](Cc1ccccc1)C(=O)N1CCC[C@H]1C(=O)N[C@@H](CCCNC(=N)N)C(=O)N[C@@H](CC(C)C)C(N)=O) [Ac-dPhe-4] | 22% | 51% | 70% | 100% | – | inhibited PBAN | inhibited PT | – | – | – | – | – | – | – | – | – |
| Arg-Tyr-Phe-Ser-Pro-[dPhe]-Leu-amide (RYFSP[dF]L-NH2; N-terminus assumed; SMILES CC(C)C[C@H](NC(=O)[C@@H](Cc1ccccc1)NC(=O)[C@@H]1CCCN1C(=O)[C@H](CO)NC(=O)[C@H](Cc1ccccc1)NC(=O)[C@H](Cc1ccc(O)cc1)NC(=O)[C@@H](N)CCCNC(=N)N)C(N)=O) [dPhe-6] | 15% | 78% | 49% | 74% | – | – | – | failed to lower pheromone content | – | – | – | – | – | – | – | – |
| Cyclohexyl-Ala-[dPhe]-Pro-Arg-Leu-amide (Cyclohexyl-A[dF]PRL-NH2; SMILES CC(C)C[C@H](NC(=O)[C@H](CCCNC(=N)N)NC(=O)[C@@H]1CCCN1C(=O)[C@@H](Cc1ccccc1)NC(=O)[C@H](C)NC1CCCCC1)C(N)=O) [Cyc-A-dPhe-4] | 15% | 100% | 7% | 6% | inhibited LPK | – | – | – | No differences | failed to lower pheromone content | – | – | – | – | – | – |
| Acetyl-Ala-Ser-Pro-[dPhe]-Leu-amide (Ac-ASP[dF]L-NH2; SMILES CC(=O)N[C@@H](C)C(=O)N[C@@H](CO)C(=O)N1CCC[C@H]1C(=O)N[C@H](Cc1ccccc1)C(=O)N[C@@H](CC(C)C)C(N)=O) [Ac-A-dPhe-6] | 29% | 0% | 63% | 100% | inhibited LPK | inhibited PBAN | inhibited PT | – | No differences | – | 74% | did not differ | – | – | – | – |
| Acetyl-Ala-[dPhe]-Pro-Arg-Leu-amide (Ac-A[dF]PRL-NH2; SMILES CC(=O)N[C@@H](C)C(=O)N[C@H](Cc1ccccc1)C(=O)N1CCC[C@H]1C(=O)N[C@@H](CCCNC(=N)N)C(=O)N[C@@H](CC(C)C)C(N)=O) [Ac-A-dPhe-4] | 6% | 31% | 54% | 100% | inhibited LPK | inhibited PBAN | inhibited PT | – | No differences | – | – | – | about 50% | 83% | less active at 100 pmol compared to 300 and 1000 pmol | – |
| Fmoc-Ala-Ser-Pro-[dPhe]-Leu-amide (Fmoc-ASP[dF]L-NH2; SMILES CC(C)C[C@H](NC(=O)[C@@H](Cc1ccccc1)NC(=O)[C@@H]1CCCN1C(=O)[C@H](CO)NC(=O)[C@H](C)NC(=O)OCC1c2ccccc2-c2ccccc21)C(N)=O) [Fmoc-A-dPhe-6] | 35% | 100% | 67% | 100% | – | – | – | – | – | – | – | – | – | – | – | – |
| Fmoc-Ala-[dPhe]-Pro-Arg-Leu-amide (Fmoc-A[dF]PRL-NH2; SMILES CC(C)C[C@H](NC(=O)[C@H](CCCNC(=N)N)NC(=O)[C@@H]1CCCN1C(=O)[C@@H](Cc1ccccc1)NC(=O)[C@H](C)NC(=O)OCC1c2ccccc2-c2ccccc21)C(N)=O) [Fmoc-A-dPhe-4] | 28% | 100% | 68% | 100% | – | – | – | – | No differences | – | – | – | – | – | – | – |
| Acetyl-Arg-Tyr-Phe-Ser-Pro-[dPhe]-Leu-amide (Ac-RYFSP[dF]L-NH2; SMILES CC(=O)N[C@@H](CCCNC(=N)N)C(=O)N[C@@H](Cc1ccc(O)cc1)C(=O)N[C@@H](Cc1ccccc1)C(=O)N[C@@H](CO)C(=O)N1CCC[C@H]1C(=O)N[C@H](Cc1ccccc1)C(=O)N[C@@H](CC(C)C)C(N)=O) [Ac-dPhe-6] | 35% | 8% | 59% | 100% | – | – | – | – | – | – | – | – | – | – | – | – |
| Arg-Tyr-Phe-[dPhe]-Pro-Arg-Leu-amide (RYF[dF]PRL-NH2; N-terminus assumed; SMILES CC(C)C[C@H](NC(=O)[C@H](CCCNC(=N)N)NC(=O)[C@@H]1CCCN1C(=O)[C@@H](Cc1ccccc1)NC(=O)[C@H](Cc1ccccc1)NC(=O)[C@H](Cc1ccc(O)cc1)NC(=O)[C@@H](N)CCCNC(=N)N)C(N)=O) [dPhe-4] | 33% | 10% | 18% | 59% | – | – | – | – | – | failed to lower pheromone content | – | – | – | – | – | lower activity in DDW and IIS compared to DMSO |
